The text below walks through data of the Deep4Chem optical property database.

The nature of the series: photoluminescence quantum yield (fraction); solvent given as SMILES.

For `CCc1cccc(CC)c1-c1c2ccccc2c(C#Cc2ccccc2)c2cc3ccccc3cc12`, for the setting “in ClCCl”, the photoluminescence quantum yield was 0.57.
`c1ccc2cc3c4c(ccc3cc2c1)-c1cccc2cccc-4c12` showed a photoluminescence quantum yield (in CCCCCCC) of 0.023.
As for `C(=C\c1c2ccccc2cc2ccccc12)/c1ccccc1`, the photoluminescence quantum yield is, setting by setting: (in CC1CCCCC1) 0.46; (in CC#N) 0.45.
Regarding `Cc1cc(C)c(B(c2cc3ccc4cccc5ccc(c2)c3c45)c2c(C)cc(C)cc2C)c(C)c1`, the photoluminescence quantum yield (in Cc1ccccc1) is 0.68.
Compound `Cc1cccc(-c2cccc(C)c2)c1` registered a photoluminescence quantum yield (in C1CCCCC1) of 0.28.
In turn, `CCn1c2ccc(-c3ccc(-c4cccs4)s3)cc2c2cc(-c3ccc(-c4cccs4)s3)ccc21` had a photoluminescence quantum yield (in ClCCl) of 0.168.
Take `C[Si](C)(C)C#Cc1cc2ccc3cc(C#C[Si](C)(C)C)cc4ccc(c1)c2c34`: where the note is “in Cc1ccccc1”, the photoluminescence quantum yield was 0.19.
For `CCC1(CC)c2cc(N(c3ccccc3)c3ccccc3)ccc2-c2c1c1c(c3c2C(CC)(CC)c2cc(N(c4ccccc4)c4ccccc4)ccc2-3)C(CC)(CC)c2cc(N(c3ccccc3)c3ccccc3)ccc2-1`, the photoluminescence quantum yield (in C1CCOC1) worked out at 0.27.
With `NS(=O)(=O)c1ccc(N2N=C(c3ccc(O)cc3)CC2c2ccc(Cl)cc2)cc1` (stereo not drawn), the photoluminescence quantum yield worked out at 0.68 (in C1CCOC1); 0.72 (in C1COCCO1); 0.65 (in CC#N); 0.53 (in CC(C)O); 0.44 (in CCO); 0.72 (in CCOC(C)=O). In addition, the photoluminescence quantum yield is, setting by setting: (in CN(C)C=O) 0.71; (in CO) 0.36; (in CS(C)=O) 0.75; (in O) 0.56.
In the case of `C(=C1c2ccccc2-c2ccccc21)c1ccc(C=C2c3ccccc3-c3ccccc32)cc1`, the photoluminescence quantum yield (in C1CCOC1) is 0.0003.
For the compound `CCCCNC(=O)c1nc2c(N(C)C)nc(N(C)C)nc2n1Cc1ccccc1`, the photoluminescence quantum yield by setting is: (in C1COCCO1) 0.95; (in CC#N) 0.95; (in CO) 0.89; (in ClCCl) 0.87.
For the compound `CCC1(CC)c2ccccc2-c2c1c1c(c3c2C(CC)(CC)c2cc(/C=C/c4cccs4)ccc2-3)C(CC)(CC)c2cc(/C=C/c3cccs3)ccc2-1`, the photoluminescence quantum yield (in C1CCOC1) came to 0.16.
Same read-out and setting: for `O=P1(c2ccccc2)C(c2ccc(C(F)(F)F)cc2)=Cc2ccccc21` (stereo not drawn) the value was 0.65.
Take `CCCCC(CC)Cn1c2cc(C#N)ccc2c2ccc(C#Cc3ccc4ccc5cccc6ccc3c4c56)cc21` (stereo not drawn): where the note is “in ClCCl”, the photoluminescence quantum yield is 0.59.
`CC(C)(C)c1cc2c(c(C(C)(C)C)c1)O[B-](F)(F)[n+]1c-2nc(-c2ccccc2)c2ccccc21` showed a photoluminescence quantum yield (in Cc1ccccc1) of 0.002.
Compound `O=Cc1cc(O)ccc1O` came in with a photoluminescence quantum yield (in C1CCOC1) of 0.0001; a photoluminescence quantum yield (in C1COCCO1) of 0.0001; a photoluminescence quantum yield (in CC#N) of 0.0001; a photoluminescence quantum yield (in CC(C)=O) of 0.01; a photoluminescence quantum yield (in CCCO) of 0.03; a photoluminescence quantum yield (in CCO) of 0.04. Besides, the photoluminescence quantum yield runs as follows: (in CN(C)C=O) 0.06; (in CN(C)P(=O)(N(C)C)N(C)C) 0.14; (in CNC=O) 0.14; (in CO) 0.0001; (in CS(C)=O) 0.17; (in NC=O) 0.07.
Take `CCOC(=O)C1=CNC=C(C(=O)OCC)C1c1ccccc1`: the photoluminescence quantum yield (in C1CCOC1) was found to be 0.7 and the photoluminescence quantum yield (in CO) stood at 0.58.
Where the note is “in CO”, `CC1=CC(/C=C/c2ccc(OCCCN=[N+]=[N-])cc2)=[N+]2C1=C(c1ccccc1)c1c(C)cc(C)n1[B-]2(F)F` had a photoluminescence quantum yield of 1.
As for `Nc1cccc2cn[nH]c12`, the photoluminescence quantum yield by setting is: (in CC#N) 0.3; (in CO) 0.11; (in O) 0.07.
In turn, `O=[N+]([O-])c1ccc(O)c(-c2nc3c(c4c2-c2ccccc2CC4)-c2ccccc2CC3)c1` showed a photoluminescence quantum yield (in ClCCl) of 0.2.
With `CC/[NH+]=c1\cc2oc3cc(NCCC(=O)NC(C)C(=O)OC)c4ccccc4c3nc-2cc1C` (stereo not drawn), for the setting “in CCO”, the photoluminescence quantum yield was determined as 0.39.
